Data as given in patent US8975259B2, “Compositions and methods for inhibiting G protein signaling” (University of Rochester, priority 2007, dated 2015).

Key:
[1] = tested on: human δ opioid receptor (hDOR-CHO cells); test: Total inositol phosphate assay in hDOR-CHO cells; format: cell-based; settings: DPDPE, Deltorphin II, M119 10 μM; naltrindole 100 μM; result in words
Procedure: (§1) Chinese hamster ovary (CHO) cells stably expressing either the human κ (hKOR-CHO), δ (hDOR-CHO)(L. Toll, Stanford Research Institute, Palo Alto, Calif.) or μ (hMOR-CHO)(G. Uhl, National Institute on Drug Abuse, Baltimore, Md.) opioid receptor were used in the experiments. Cells in 6-well plates were labeled by adding 4 μCi of [^3H]inositol for 24 hr in inositol-free F-10 media, without serum. After labeling, LiCl was added directly to the labeling media at a final concentration of 10 mM. Ligands or peptides were added at the same time. The final volume of each well was 1 mL. The plates were put back in to the incubator at 37° C. for 30 min after which time the medium was aspirated and the plates were washed twice with 1× PBS. Ice-cold 50 mM formic acid, 1 mL, was added to the plates which were placed in the cold room at 4° C. for 30 min. After the incubation, the contents of the plates were applied to Dowex AG1-X8 columns and allowed to flow all the way through the column. The columns were washed, twice each, with 50 and 100 mM formic acid, for a total of four washes, followed by elution of the IP-containing fraction with 3 mL of 1.2 M ammonium formate/0.1 M formic acid. The eluted fraction was mixed with Scintisafe scintillation fluid, for high salt, and counted. The data are represented as the fold increase over control in total inositol phospates. All experiments were repeated three times and performed in duplicate. Control cells for each experiment were labeled with [^3H]inositol and LiCl, in the same manner as the treatment groups.

[2] = tested on: human μ opioid receptor (hMOR-CHO cells); test: Total inositol phosphate assay in hMOR-CHO cells; format: cell-based
Procedure: as §1

[3] = tested on: opioid-induced antinociception in mice; test: 55° C. warm-water tail-flick antinociception; format: in vivo, mouse; settings: i.c.v., 20 min, 55° C. tail-flick; 95% CL in parentheses
[4] = tested on: fMLP-dependent Ca2+ release in differentiated HL60 cells; test: fMLP-dependent Ca2+ release in fura-2 loaded DMSO-differentiated HL60 cells; format: cell-based, human; settings: 10 μM compound, 250 nM fMLP; result in words
Procedure: (§2) Cells were pretreated with DMSO or 10 μM compounds for 5 min prior to stimulation with 250 nM fMLP. […] Normalized peak Ca^2+ responses were pooled from three independent experiments each (mean±SEM). Cells were pretreated with DMSO (▪) or compounds (▴) for 5 min prior to stimulation. FIG. 5C is the same as A except 10 μM M201 was tested. […] Differentiated HL60 cells were treated with 10 μM compound prior to stimulation with 250 nM fMLP. Translocation of endogenous GRK2 was determined by Western blotting with a GRK2 antibody and quantitative chemiluminescence. Data are mean±SEM from 5 experiments, * P<0.05, **P<0.01 ANOVA. […] Differentiated HL60 cells stably over-expressing GFP-PHAkt were treated with 10 μM compound prior to stimulation with 100 nM fMLP. Translocation of GFP-PHAkt to the membrane was determined by Western blotting with an anti-GFP antibody and quantitative chemiluminescence. Data are mean±SEM from 4 experiments. *** P<0.001 ANOVA. […] Differentiated HL60 cells were pretreated with 10 μM of compound prior to stimulation with 1 μM fMLP for 5 min. Levels of phosphorylated and total ERK were determined by Western blotting.
Ca^2+ fluxes were measured using two 35 mL cultures of differentiated HL-60 neutrophil cultures (0.2×10^6 cells/mL). Cells were cultured for three days with in DMSO
(1.2%), washed in HSS and resuspended in 2 mL HBSS at a concentration of 7×10^s cells/mL. Addition of DMSO to the growth medium induces differentiation of these cells into morphologically and functionally mature neutrophils
(Collins, et al. (1978) Proc. Natl. Acad. Sci. USA 75:2458; Collins, et al. (1979) J. Exp. Med. 149:969). Neutrophils were preloaded with fura-2 (1 μM), a fluorescent Ca^2+-sensitive indicator (Suh, et al. (1996) J. Biol. Chem. 271:32753), for 45 minutes, washed with HBSS and resuspended in 2 mL of indicator-free HBSS. An 140 μL aliquote of cells was added to a total of 2 mL HBSS. Fluorescence ratios were taken by dual excitation at 340 and 380 nm and emission at 510 nm. After a stable baseline was established, either DMSO or NSC119910 was added and incubated for 5 minutes. […]

[5] = tested on: ERK1 and ERK2 activation in differentiated HL60 cells; test: fMLP-induced ERK1 and ERK2 activation in differentiated HL60 cells; format: cell-based, human; settings: 10 μM compound, 1 μM fMLP; result in words
Procedure: as §2

Fαi1GDPβ1γ2 heterotrimer = target: T1, Fαi1GDPβ1γ2 heterotrimer (UniProt P54311+P63212); test: Dissociation of Fαi1 from preformed Fαi1β1γ2 heterotrimer (flow cytometry); format: binding; settings: result in words
T1 construct: made in house; host or cells: b-βγ: Sf9 insect cells
Procedure: Assays were used to determine peptide effects on Gα-Gβγ interactions included competition and dissociation assays (Ghosh, et al. (2003) supra). […] To measure dissociation of Fan from b-Gβaγ2, 100 pM of Fa^ was incubated with 50 pM immobilized b-Gβ1γ2 at room temperature for 15-20 minutes. The fluorescence of bound Fαii subunit was measured, followed by the addition of a 200-fold excess of unlabeled Gcx±x or peptides and the amount of Fan remaining bound to the beads was measured at the indicated times.
The ability of peptides to dissociate a preformed hetero-trimer was assessed by comparing the rates of Fαi1 dissociation from Fαi1β1γ2 with excess unlabeled αi1 competitor (intrinsic dissocia-tion rate) and in the presence of a saturating concentration of peptide.

PLCβ2 = settings: Scott, et al. (2001); read-out: IC50 for inhibition of PLC β2 activation by Gβ1γ2; cited from earlier work

T1 sequence (P54311 whole entry): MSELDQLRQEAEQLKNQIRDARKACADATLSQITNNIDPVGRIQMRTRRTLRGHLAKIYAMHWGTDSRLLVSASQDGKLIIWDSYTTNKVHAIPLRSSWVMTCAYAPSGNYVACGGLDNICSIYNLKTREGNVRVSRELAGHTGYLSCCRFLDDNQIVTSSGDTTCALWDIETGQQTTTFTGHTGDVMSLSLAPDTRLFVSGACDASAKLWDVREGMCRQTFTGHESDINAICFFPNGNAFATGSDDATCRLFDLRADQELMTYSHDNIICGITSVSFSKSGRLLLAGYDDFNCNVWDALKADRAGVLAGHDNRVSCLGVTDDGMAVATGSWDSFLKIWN
T1 sequence (P63212 2-68 limits assumed): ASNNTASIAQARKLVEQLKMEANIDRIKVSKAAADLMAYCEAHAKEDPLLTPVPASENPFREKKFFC

Compound: Oc1ccc2c3c1O[C@H]1c4[nH]c5ccccc5c4C[C@@]4(O)[C@@H](C2)N(CC2CC2)CC[C@]314 [naltrindole]
- effect on IP generation over control treated cells [1]: no significant effect

Compound: [D-Pen^2,D-Pen^5]enkephalin [DPDPE]
- effect of compound by itself on IP production [2]: no effect
- effect on IP generation over control treated cells [1]: neither DPDPE (10 μM) (FIG. 15C) nor Deltorphin II (10 μM) (FIG. 15D) significantly increased IP generation
- ED50 of opioid agonist alone [3]: 6.5 nmol

Compound: O=C(O)c1cccc2cccc(-c3c4ccc(=O)c(O)c-4oc4c(O)c(O)ccc34)c12 [Compound M119K]
- effect on fMLP-induced Ca^2+ increase [4]: block
- effect on fMLP-induced activation of ERK1 and ERK2 [5]: without interfering

Compound: CC[C@H](C)[C@H](NC(=O)[C@H](CC(N)=O)NC(=O)[C@H](CC(C)C)NC(=O)[C@H](C)NC(=O)[C@H](CCCCN)NC(=O)[C@H](CCCNC(=N)N)NC(=O)[C@@H](NC(=O)[C@@H](N)CO)[C@@H](C)CC)C(=O)N[C@@H](CC(C)C)C(=O)NCC(=O)N[C@@H](Cc1ccc(O)cc1)C(=O)N1CCC[C@H]1C(=O)N[C@@H](CC(=O)O)C(=O)N[C@@H](Cc1ccc(O)cc1)C(=O)N[C@@H](CC(=O)O)C(=O)O [SIRK]
- promotion/acceleration of heterotrimer dissociation (Fαi1GDPβ1γ2 heterotrimer): promotes dissociation
- IC50 (PLCβ2): 5 µM
